Source: patent US9750718B2, “Methods of treating hepatic fibrosis and associated diseases by regulating Rev-ERB activity” (The Charlotte-Mecklenburg Hospital Authority, priority 2012, dated 2017)

What was measured:
[1] = test system: Rev-erbα; experiment: Rev-erbα protein expression in HSCs under pro- and anti-fibrogenic factors (Western blot); type: cell-based, rat
Procedure: (§1) Primary rat HSCs were isolated by pronase/collagenase perfusion digestion followed by density gradient centrifugation with Optiprep. Media was replaced every other day to replenish Rev-erbα modulator SR6452, which was present at a 10 μM concentration. Cells were treated with MDIR mixture (IBMX, dexamethasone, insulin, rosiglitazone), TGFβ, or DMSO (vehicle). Some experiments were performed with the human HSC cell line, LX-2.
FIG. 2B show results from primary HSCs that were treated with pro-fibrogenic factor TGFβ (5 ng/ml) or myosin inhibitors blebbistatin (Bleb) or BDM (2,3-Butanedione monoxime) for 48 hrs. Cells were harvested for protein and Western blots performed to detect Rev-erbα.

[2] = test system: CCl4-induced liver fibrosis; experiment: CCl4-induced liver fibrosis mouse model (herovici histology, qRT-PCR of whole liver); type: in vivo
Procedure: Male C57BL/6 mice (age 9 weeks) were injected intraperitoneally with carbon tetrachloride (CCl4) in sterile olive oil (1 μl CCl4/g body weight) twice a week for 5 weeks. Three weeks after initiation of CCl4 treatment, SR9009 (EMD Millipore, dissolved in DMSO) was administered 5 times a week at a dose of 0.1 mg/g body weight for two weeks. Mice were sacrificed 72 hours after the last dose of SR9009 and livers were harvested for further analysis. For histology studies, livers of the right and left lobes were fixed in 10% formalin, embedded in paraffin, sectioned, and stained with herovici to detect collagen deposition. For gene expression studies, total RNA was extracted from whole liver homogenates, and qRT-PCR performed to detect various markers, including αSMA, Col1α1, Col1α2, tenascin C, and connective tissue growth factor.

[3] = test system: primary rat HSCs; experiment: Adipogenesis in culture-activated primary HSCs (Oil Red O staining, qRT-PCR of adipogenic factors); type: cell-based
Procedure: (§2) A series of experiments were conducted to determine the functional role of Rev-erbα in HSC transdifferentiation. In these experiments, culture-activated primary rat HSCs and human LX-2 cells were used. To determine the effect of Rev-erbα on HSC transdifferentiation and contraction, cells were treated with a specific synthetic modulator, SR6452 (10 μM). mRNA and protein expression were determined by qRT-PCR and Western blot, respectively. Changes in cellular morphology, Rev-erb expression/localization and αSMA expression were observed by confocal microscopy. Additionally, cell contractility was assessed.
as §1
(§3) mRNA expression was normalized to 18S rRNA.
FIGS. 3A-B illustrates that modulation of Rev-erbα activity can regulate adipogenesis. Primary HSCs were culture-activated for 5 days (A) or 15 days (B). Cells were treated with vehicle (DMSO, open bar), or the Rev-erbα modulator SR6452 ([…], purple bar) for the days indicated. The medium was changed every 48 hrs. FIG. 3A provides a chart summarizing the amount of PPARγ, SREBP1, and Lep mRNA on day 5.

[4] = test system: primary rat HSCs; experiment: ECM gene expression by qRT-PCR in primary HSCs; type: cell-based; settings: SR6452 10 μM, day Q to day 5 or day 9 to day 12
Procedure: as §2, §1, §3
FIGS. 4A-B illustrate that the Rev-erbα modulator SR6452 can suppress/decrease ECM gene expression. Primary rat HSCs were cultured from quiescence (day Q) to day 5 (FIG. 4A) or from day 9 to day 12 (FIG. 4B) and treated with Rev-erbα modulator SR6452. qRT-PCR was performed to determine ECM gene expression. DMSO was used as the vehicle control, while SR6452 was used as the Rev-erbα modulator.

[5] = test system: primary rat HSCs; experiment: Myofibroblast marker expression and morphology (qRT-PCR, αSMA immunocytochemistry); type: cell-based
Procedure: as §2, §3
Prior to transfection, culture-activated HSCs (for varying days of activation) were seeded onto glass coverslips. Cells were fixed with 4% paraformaldehyde and stained with anti-αSMA antibody, a marker of HSC activation. Cells were imaged using a Zeiss confocal microscope. The fluorescence indicates Rev-erb or αSMA expression.
(§4) FIGS. 5A-D illustrate that Rev-erbα modulator SR6452 can regulate myofibroblast marker expression and HSC contraction. Primary rat HSCs were cultured from quiescence (day Q) to day 5 (FIG. 5A) or from day 9 to day 12 (FIG. 5B) and treated with Rev-erbα modulator SR6452. qRT-PCR was performed for myofibroblast gene expression. Samples were normalized with 18S rRNA. […] HSCs (day 5) were embedded in a collagen gel and treated as indicated for 48 hrs. Gels were then released from plastic surface and contraction monitored after 72 hrs. Materials used were DMSO (vehicle control), SR6452, Rev-erb modulator; and BDM (2,3-Butanedione monoxime), myosin inhibitor.

[6] = test system: primary rat HSCs; experiment: Cell contraction assay (collagen gel); type: cell-based; settings: HSCs embedded in collagen gel, treated 48 hrs, contraction monitored after 72 hrs
Procedure: Primary rat HSCs (day 9, 2-5×10^6 cells/ml) were embedded in a collagen lattice per manufacturer's instructions. Cells were treated with synthetic Rev-erbα ligand SR6452. Collagen gel size change was imaged using a BioSpectrum Imaging System.
as §4

[7] = test system: LX-2 cells; experiment: Response of LX-2 cells to Rev-erb agonist, with or without Rev-erbα overexpression; type: cell-based, human
Procedure: Primary rat HSCs were isolated via standard pronase-collagenase digestion and subsequent density gradient centrifugation. LX-2 cells were treated with adipogenic mixture (MDI), 5 ng/ml of recombinant transforming growth factor-beta (TGFβ), or plated on Matrigel™ (growth condition which promotes HSC quiescence) for various time points. Gene expression was determined by RealTime PCR and Western blot. Immunocytochemistry followed by confocal microscopy was used to determine sub-cellular localization. A Rev-erb DNA binding domain (DBD) mutant was produced by standard molecular cloning. LX-2 cells were transfected with expression vectors or controls using Fugene®HD.

[8] = biological target: T1, Rev-erbα (Homo sapiens, UniProt P20393); settings: cited from earlier work
T1 sequence (P20393 1-614): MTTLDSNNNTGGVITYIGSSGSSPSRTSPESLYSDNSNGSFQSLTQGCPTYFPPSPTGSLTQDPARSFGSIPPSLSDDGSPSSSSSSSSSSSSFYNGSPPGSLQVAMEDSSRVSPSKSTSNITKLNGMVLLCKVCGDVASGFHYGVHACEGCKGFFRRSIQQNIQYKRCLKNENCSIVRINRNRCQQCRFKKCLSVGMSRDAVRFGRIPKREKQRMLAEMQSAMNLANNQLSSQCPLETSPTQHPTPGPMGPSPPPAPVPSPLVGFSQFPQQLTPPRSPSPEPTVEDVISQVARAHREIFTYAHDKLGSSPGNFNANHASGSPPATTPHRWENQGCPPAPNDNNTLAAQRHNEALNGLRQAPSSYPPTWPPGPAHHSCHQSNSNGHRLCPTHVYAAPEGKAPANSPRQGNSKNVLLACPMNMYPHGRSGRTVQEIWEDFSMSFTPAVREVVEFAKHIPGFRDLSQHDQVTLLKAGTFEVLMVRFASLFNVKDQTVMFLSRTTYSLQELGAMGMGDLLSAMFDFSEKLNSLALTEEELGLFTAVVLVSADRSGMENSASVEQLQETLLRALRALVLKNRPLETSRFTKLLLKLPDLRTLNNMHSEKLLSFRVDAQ

[9] = qRT-PCR whole liver, CCl4 + SR9009 0.1 mg/g
[10] = SR6452 10 μM, mRNA by qRT-PCR, day 5

TGFβ
cytoplasmic Rev-erbα ([1]; TGFβ treatment): stabilized
Rev-erbα protein expression ([1]; Western blot, TGFβ 5 ng/ml 48 hrs, MDIR or matrigel through day 4): increased

CCOC(=O)N1CCC(CN(Cc2ccc(Cl)cc2)Cc2ccc([N+](=O)[O-])s2)C1 (stereo not shown) [SR9009]
liver architecture and collagen deposition (herovici stain) ([2]; C57BL/6 mice, CCl4 5 weeks, SR9009 0.1 mg/g 5 times a week for two weeks): essentially normal liver architecture and amount of collagen deposition
CCl4-mediated liver fibrosis ([2]; mice, histological and expression data): effective reverses
Col1α1 expression in liver [2, 9]: down to almost normal levels
Col1α2 expression in liver [2, 9]: down to almost normal levels
αSMA expression in liver [2, 9]: down to almost normal levels

CC(C)(C)OC(=O)CN(Cc1ccc(Cl)cc1)Cc1ccc([N+](=O)[O-])s1 [SR6452, 1,1-Dimethylethyl-N-[(4-chlorophenyl)methyl]-N-[(5-nitro-2-thienyl)methyl]) glycinate]
lipid content in activated HSCs ([3]; SR6452 10 μM, Oil Red O, day 15): increased
PPARγ expression [3, 10]: up-regulated
SREBP1 expression [3, 10]: up-regulated
HSC adipogenesis ([3]; exposure of quiescent HSCs): promoted
Type I collagen expression [4]: significantly down-regulated
fibronectin expression [4]: significantly down-regulated
tenascin C expression [4]: significantly down-regulated
major regulatory and structural genes controlling myofibroblast contraction ([5]; SR6452 10 μM, qRT-PCR normalized to 18S rRNA): repressive effects
cell morphology ([5]; day 9 HSCs treated 72 hrs, αSMA/DAPI immunocytochemistry): slightly rounded/folded cytoplasm with disoriented actin fibers
effect on HSC activation ([5]; overall conclusion of Example 1): suppressive effect
HSC contraction [6]: impeded
response to Rev-erb agonist ([7]; LX-2 cells overexpressing Rev-erbα): sensitive
response to Rev-erb agonist ([7]; LX-2 cells without Rev-erbα overexpression): non-responsive
recruitment of nuclear receptor co-repressor (NCoR) peptide to Rev-erbα [8]: enhances recruitment
EC50 ([8]; read-out: EC50 (synthetic Rev-erb agonist)): 250 nM
